Measurements from patent EP0206497B1, “Therapeutic nucleosides and their preparation” (priority 1985, dated 1986).
Values belong to the compound of their own block, whether it stands above or below them.

What was measured:
Type in all cases: cell-based
[1] = Cytotoxic effect against D-98 cells; conditions: human, 10⁻⁴ M, % growth relative to the control
Experimental: (§1) The following compounds were tested for cytotoxic effect at 10⁻⁴ M against human D-98 and mouse L cells. Figures shown are % growth relative to the control.

[2] = Cytotoxic effect against L cells; conditions: mouse, 10⁻⁴ M, % growth relative to the control
Experimental: as §1

[3] = tested on: friend leukaemia virus; experiment: Retroviral activity against friend leukaemia virus; conditions: read-out: ED₅₀
Experimental: (§2) • a) Feline Leukaemia Virus Susceptible feline embryo lung fibroblasts (FLF-3) were seeded onto multiwell slides (10⁵ cells/ml, 0.05 ml/well) with Dulbecco-modified Eagle's essential medium (DME) and incubated at 37 °C overnight. Each of the 32 wells was then infected with 40-60 focus forming units (ffu) of feline leukaemia virus (FeLV) for one hour after which the medium was replaced with fresh DME with varying concentrations of 2,6-diaminopurine-9-β-D-2',3'-dideoxyribofuranoside per 4 wells. Concentrations were 0, 1.0, 10, 50, 100, 200 and 400 »M. After 3 days incubation at 37 °C, the cultures were assayed by the indirect fluorescent antigen test for the production of FeLV. […]. […] This protective effect was seen on both days 10 and 13 of the experiment. • c) Friend Leukaemia virus The compounds have been tested for retroviral activity against friend leukaemia virus with the following results.

[4] = tested on: feline leukaemia virus (FeLV); experiment: Feline leukaemia virus production in infected FLF-3 fibroblasts, indirect fluorescent antigen test; conditions: FLF-3 cells; for inhibition: 3 days incubation
Experimental: as §2

[5] = tested on: HIV; experiment: Block of HIV infection / cytopathic effect in cloned T4 positive T helper lymphocytes (cell survival); conditions: after 10 days in culture (protective effect seen on days 10 and 13), up to 5000 virions/cell, untreated infected cells 8-fold decreased
Experimental: as §2

Structure (SMILES): Nc1ncc2ncn([C@H]3CC[C@@H](CO)O3)c2n1 [2-Aminopurine-9-β-D-2',3'-dideoxyribofuranoside]
- activity at 100 µM [1]: 97%
- activity at 100 µM [2]: 107%

- EC50 [3]: 25.9 µM
Structure (SMILES): Nc1nc2c(ncn2[C@H]2CC[C@@H](CO)O2)c(=O)[nH]1 [2',3'-dideoxyguanosine, reference compound]
- activity at 100 µM [1]: 87%
- activity at 100 µM [2]: 93%

- EC50 [3]: 22.4 µM
Structure (SMILES): Nc1nc(N)c2ncn([C@H]3CC[C@@H](CO)O3)c2n1 [2,6-Diaminopurine-9-β-D-2',3'-dideoxyribofuranoside]
- inhibition ([4]; 0.1 »M): 31%
- inhibition ([4]; 10 »M): 45%
- inhibition ([4]; 50 »M): 60%
- production of FeLV ([4]; concentrations of 100 »M and above, 3 days incubation at 37°C): Complete absence of FeLV
- viral cytopathic effects in infected T cells ([5]; 2 »M): no viral cytopathic effects were seen
- viral cytopathic effects in infected T cells ([5]; 10 »M): no viral cytopathic effects were seen
- activity at 100 µM [1]: 97%
- activity at 100 µM [2]: 41%
